According to patent publication US10597388B2, “Pyridazinone herbicides” (FMC CORPORATION, priority 2014, dated 2020):

Columns and labels:
Assay in all cases: Test E greenhouse herbicide test, pre- and postemergence
Type in all cases: in vivo
[1] = system: pigweed, palmer (palmer pigweed, Amaranthus palmeri)
Method in brief: (§1)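 Seeds were sown in silt loam and sprayed preemergence with compound in a non-phytotoxic solvent mix containing surfactant; for postemergence, plants at 2 to 18 cm (1- to 4-leaf stage) in peat-based potting medium were sprayed with the same formulation. After 14 to 21 d in a greenhouse, injury was rated visually against controls (0–100).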

[2] = system: barnyardgrass (Echinochloa crus-galli)
Method in brief: as §1

[3] = system: goosegrass (Eleusine indica); conditions: Preemergence
Method in brief: as §1

[4] = system: nutsedge, yellow (yellow nutsedge, Cyperus esculentus); conditions: Preemergence
Method in brief: as §1

[5] = system: johnsongrass (Sorghum halepense); conditions: Preemergence
Method in brief: as §1

[6] = system: dayflower (Virginia (VA) dayflower, Commelina virginica)
Method in brief: as §1

kochia (Kochia scoparia) = system: kochia (Kochia scoparia)
Method in brief: as §1

[7] = system: crabgrass, Brazilian (Brazilian crabgrass, Digitaria horizontalis)
Method in brief: as §1

[8] = system: surinam grass (Brachiaria decumbens); conditions: Preemergence
Method in brief: as §1

[9] = system: waterhemp (common waterhemp, Amaranthus rudis)
Method in brief: as §1

[10] = 62 g ai/ha, Postemergence, scale 0 to 100 (0 no effect, 100 complete control)
[11] = 62 g ai/ha, Preemergence, scale 0 to 100 (0 no effect, 100 complete control)
[12] = 125 g ai/ha, Postemergence, scale 0 to 100 (0 no effect, 100 complete control)
[13] = 125 g ai/ha, Preemergence, scale 0 to 100 (0 no effect, 100 complete control)
[14] = 250 g ai/ha, Postemergence, scale 0 to 100 (0 no effect, 100 complete control)
[15] = Postemergence, 31 g ai/ha, visual, scale 0 no effect to 100 complete control
[16] = Preemergence, 31 g ai/ha, scale 0 to 100, 0 no effect, 100 complete control
[17] = Preemergence, 250 g ai/ha, visual, scale 0 no effect to 100 complete control
[18] = 62 g ai/ha, scale 0 to 100 (0 no effect, 100 complete control)
[19] = 125 g ai/ha, scale 0 to 100 (0 no effect, 100 complete control)
[20] = 31 g ai/ha, scale 0 to 100, 0 no effect, 100 complete control
[21] = 250 g ai/ha, visual, scale 0 no effect to 100 complete control
[22] = Preemergence, 16 g ai/ha, scale 0 to 100, 0 no effect, 100 complete control
[23] = 16 g ai/ha, scale 0 to 100, 0 no effect, 100 complete control

SMILES: Cc1nn(C)c(=O)c(-c2ccc(Br)c3ccccc23)c1O [Compound 75]
- Plant response rating, Pigweed, Palmer [1, 10]: 70
- Plant response rating, Pigweed, Palmer [1, 11]: 85
- Plant response rating, Pigweed, Palmer [1, 12]: 100
- Plant response rating, Pigweed, Palmer [1, 13]: 50
- Plant response rating, Pigweed, Palmer [1, 14]: 100
- Plant response rating, Pigweed, Palmer [1, 15]: 70
- Plant response rating, Pigweed, Palmer [1, 16]: 30
- Plant response rating, Pigweed, Palmer [1, 17]: 100
- Plant response rating, Barnyardgrass [2, 10]: 30
- Plant response rating, Barnyardgrass [2, 11]: 20
- Plant response rating, Barnyardgrass [2, 12]: 25
- Plant response rating, Barnyardgrass [2, 13]: 35
- Plant response rating, Barnyardgrass [2, 14]: 30
- Plant response rating, Barnyardgrass [2, 15]: 20
- Plant response rating, Barnyardgrass [2, 16]: 20
- Plant response rating, Barnyardgrass [2, 17]: 65
- Plant response rating, Goosegrass [3, 18]: 0
- Plant response rating, Goosegrass [3, 19]: 0
- Plant response rating, Goosegrass [3, 20]: 0
- Plant response rating, Goosegrass [3, 21]: 5
- Plant response rating, Nutsedge, Yellow [4, 18]: 10
- Plant response rating, Nutsedge, Yellow [4, 19]: 70
- Plant response rating, Nutsedge, Yellow [4, 20]: 0
- Plant response rating, Nutsedge, Yellow [4, 21]: 65
- Plant response rating, Johnsongrass [5, 18]: 0
- Plant response rating, Johnsongrass [5, 19]: 10
- Plant response rating, Johnsongrass [5, 20]: 0
- Plant response rating, Johnsongrass [5, 21]: 15
- Plant response rating, Dayflower, VA [6, 10]: 50
- Plant response rating, Dayflower, VA [6, 11]: 10
- Plant response rating, Dayflower, VA [6, 12]: 50
- Plant response rating, Dayflower, VA [6, 13]: 60
- Plant response rating, Dayflower, VA [6, 14]: 65
- Plant response rating, Dayflower, VA [6, 15]: 30
- Plant response rating, Dayflower, VA [6, 16]: 10
- Plant response rating, Dayflower, VA [6, 17]: 75
- Plant response rating, Kochia (kochia (Kochia scoparia); [10]): 98
- Plant response rating, Kochia (kochia (Kochia scoparia); [11]): 100
- Plant response rating, Kochia (kochia (Kochia scoparia); [12]): 100
- Plant response rating, Kochia (kochia (Kochia scoparia); [13]): 100
- Plant response rating, Kochia (kochia (Kochia scoparia); [14]): 100
- Plant response rating, Kochia (kochia (Kochia scoparia); [15]): 90
- Plant response rating, Kochia (kochia (Kochia scoparia); [16]): 98
- Plant response rating, Kochia (kochia (Kochia scoparia); [17]): 100
- Plant response rating, Crabgrass, Brazil [7, 10]: 40
- Plant response rating, Crabgrass, Brazil [7, 11]: 20
- Plant response rating, Crabgrass, Brazil [7, 12]: 50
- Plant response rating, Crabgrass, Brazil [7, 13]: 90
- Plant response rating, Crabgrass, Brazil [7, 14]: 50
- Plant response rating, Crabgrass, Brazil [7, 15]: 40
- Plant response rating, Crabgrass, Brazil [7, 16]: 0
- Plant response rating, Crabgrass, Brazil [7, 17]: 90
- Plant response rating, Surinam Grass [8, 18]: 35
- Plant response rating, Surinam Grass [8, 19]: 60
- Plant response rating, Surinam Grass [8, 20]: 5
- Plant response rating, Surinam Grass [8, 21]: 90
- Plant response rating, Waterhemp [9, 10]: 90
- Plant response rating, Waterhemp [9, 11]: 60
- Plant response rating, Waterhemp [9, 12]: 90
- Plant response rating, Waterhemp [9, 13]: 100
- Plant response rating, Waterhemp [9, 14]: 95
- Plant response rating, Waterhemp [9, 15]: 80
- Plant response rating, Waterhemp [9, 16]: 50
- Plant response rating, Waterhemp [9, 17]: 100

SMILES: Cc1ccc2sc(Br)c(-c3c(O)c(C)nn(C)c3=O)c2c1 [Compound 79]
- Plant response rating, Pigweed, Palmer [1, 10]: 35
- Plant response rating, Pigweed, Palmer [1, 11]: 70
- Plant response rating, Pigweed, Palmer [1, 12]: 40
- Plant response rating, Pigweed, Palmer [1, 13]: 70
- Plant response rating, Pigweed, Palmer [1, 14]: 75
- Plant response rating, Pigweed, Palmer [1, 15]: 40
- Plant response rating, Pigweed, Palmer [1, 16]: 75
- Plant response rating, Pigweed, Palmer [1, 17]: 75
- Plant response rating, Barnyardgrass [2, 10]: 15
- Plant response rating, Barnyardgrass [2, 11]: 30
- Plant response rating, Barnyardgrass [2, 12]: 20
- Plant response rating, Barnyardgrass [2, 13]: 40
- Plant response rating, Barnyardgrass [2, 14]: 20
- Plant response rating, Barnyardgrass [2, 15]: 15
- Plant response rating, Barnyardgrass [2, 16]: 30
- Plant response rating, Barnyardgrass [2, 17]: 50
- Plant response rating, Goosegrass [3, 18]: 60
- Plant response rating, Goosegrass [3, 19]: 60
- Plant response rating, Goosegrass [3, 20]: 50
- Plant response rating, Goosegrass [3, 21]: 65
- Plant response rating, Nutsedge, Yellow [4, 18]: 60
- Plant response rating, Nutsedge, Yellow [4, 19]: 65
- Plant response rating, Nutsedge, Yellow [4, 20]: 50
- Plant response rating, Nutsedge, Yellow [4, 21]: 75
- Plant response rating, Johnsongrass [5, 20]: 70
- Plant response rating, Johnsongrass [5, 21]: 65
- Plant response rating, Dayflower, VA [6, 10]: 50
- Plant response rating, Dayflower, VA [6, 11]: 70
- Plant response rating, Dayflower, VA [6, 12]: 60
- Plant response rating, Dayflower, VA [6, 13]: 65
- Plant response rating, Dayflower, VA [6, 14]: 65
- Plant response rating, Dayflower, VA [6, 15]: 50
- Plant response rating, Dayflower, VA [6, 16]: 50
- Plant response rating, Dayflower, VA [6, 17]: 70
- Plant response rating, Kochia (kochia (Kochia scoparia); [10]): 80
- Plant response rating, Kochia (kochia (Kochia scoparia); [11]): 70
- Plant response rating, Kochia (kochia (Kochia scoparia); [12]): 90
- Plant response rating, Kochia (kochia (Kochia scoparia); [13]): 100
- Plant response rating, Kochia (kochia (Kochia scoparia); [14]): 98
- Plant response rating, Kochia (kochia (Kochia scoparia); [15]): 70
- Plant response rating, Kochia (kochia (Kochia scoparia); [16]): 50
- Plant response rating, Kochia (kochia (Kochia scoparia); [17]): 100
- Plant response rating, Crabgrass, Brazil [7, 10]: 20
- Plant response rating, Crabgrass, Brazil [7, 11]: 30
- Plant response rating, Crabgrass, Brazil [7, 12]: 25
- Plant response rating, Crabgrass, Brazil [7, 13]: 80
- Plant response rating, Crabgrass, Brazil [7, 14]: 40
- Plant response rating, Crabgrass, Brazil [7, 15]: 20
- Plant response rating, Crabgrass, Brazil [7, 17]: 100
- Plant response rating, Surinam Grass [8, 18]: 50
- Plant response rating, Surinam Grass [8, 19]: 60
- Plant response rating, Surinam Grass [8, 20]: 40
- Plant response rating, Surinam Grass [8, 21]: 80
- Plant response rating, Waterhemp [9, 10]: 60
- Plant response rating, Waterhemp [9, 11]: 100
- Plant response rating, Waterhemp [9, 12]: 70
- Plant response rating, Waterhemp [9, 13]: 100
- Plant response rating, Waterhemp [9, 14]: 80
- Plant response rating, Waterhemp [9, 15]: 50
- Plant response rating, Waterhemp [9, 16]: 75
- Plant response rating, Waterhemp [9, 17]: 100

SMILES: COC(=O)Oc1c(C)nn(C)c(=O)c1-c1c(C)sc2ccc(C)cc12 [Compound 80]
- Plant response rating, Pigweed, Palmer [1, 11]: 70
- Plant response rating, Pigweed, Palmer [1, 13]: 70
- Plant response rating, Pigweed, Palmer [1, 22]: 20
- Plant response rating, Pigweed, Palmer [1, 16]: 35
- Plant response rating, Barnyardgrass [2, 11]: 20
- Plant response rating, Barnyardgrass [2, 13]: 20
- Plant response rating, Barnyardgrass [2, 22]: 0
- Plant response rating, Barnyardgrass [2, 16]: 0
- Plant response rating, Goosegrass [3, 18]: 30
- Plant response rating, Goosegrass [3, 19]: 20
- Plant response rating, Goosegrass [3, 23]: 0
- Plant response rating, Goosegrass [3, 20]: 0
- Plant response rating, Nutsedge, Yellow [4, 18]: 40
- Plant response rating, Nutsedge, Yellow [4, 19]: 35
- Plant response rating, Nutsedge, Yellow [4, 23]: 5
- Plant response rating, Nutsedge, Yellow [4, 20]: 10
- Plant response rating, Johnsongrass [5, 18]: 80
- Plant response rating, Johnsongrass [5, 19]: 80
- Plant response rating, Johnsongrass [5, 20]: 0
- Plant response rating, Dayflower, VA [6, 11]: 0
- Plant response rating, Dayflower, VA [6, 13]: 10
- Plant response rating, Dayflower, VA [6, 22]: 0
- Plant response rating, Dayflower, VA [6, 16]: 0
- Plant response rating, Kochia (kochia (Kochia scoparia); [11]): 100
- Plant response rating, Kochia (kochia (Kochia scoparia); [13]): 100
- Plant response rating, Kochia (kochia (Kochia scoparia); [22]): 25
- Plant response rating, Kochia (kochia (Kochia scoparia); [16]): 90
- Plant response rating, Crabgrass, Brazil [7, 11]: 90
- Plant response rating, Crabgrass, Brazil [7, 13]: 100
- Plant response rating, Crabgrass, Brazil [7, 22]: 65
- Plant response rating, Crabgrass, Brazil [7, 16]: 75
- Plant response rating, Surinam Grass [8, 18]: 20
- Plant response rating, Surinam Grass [8, 19]: 75
- Plant response rating, Surinam Grass [8, 23]: 0
- Plant response rating, Surinam Grass [8, 20]: 10
- Plant response rating, Waterhemp [9, 11]: 100
- Plant response rating, Waterhemp [9, 13]: 100
- Plant response rating, Waterhemp [9, 22]: 0
- Plant response rating, Waterhemp [9, 16]: 70
